Some test systems named below: XF 498 CNS; SK-MEL-28 melanoma; M14 melanoma; A549 NSCLC; OVCAR-5 ovarian; OVCAR-3 ovarian; OVCAR-4 ovarian; RPMI-8226 leukemia; KM20L2 colon; 786-0 renal; LOX IMVI melanoma.
What all share (assay): NCI-60 cell line screen, 48 h

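Cells were grown in 96-well plates and exposed to each compound for 48 hours at five concentrations; endpoints were interpolated linearly between bracketing concentrations, or set to the highest concentration if not reached. GI50 is the concentration that inhibits growth by half. The concentration for full growth arrest is given as TGI.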

In the case of `O=C(OCc1ccccc1)C(Cc1ccccc1)N(Cc1ccccc1)Cc1ccccc1` (stereo not drawn), the TGI in the test with XF 498 CNS, with SK-MEL-28 melanoma, in the test with M14 melanoma, in the test on A549 NSCLC, in the test on OVCAR-5 ovarian and with OVCAR-3 ovarian was greater than 100 µM each time. Further, the TGI with OVCAR-4 ovarian, in the test on RPMI-8226 leukemia and in the test with KM20L2 colon was greater than 100 µM each time.

`COc1cc(CC(C)N)ccc1O` (stereo not drawn): the TGI in the test with XF 498 CNS, in the test on SK-MEL-28 melanoma, in the test with M14 melanoma, with A549 NSCLC, in the test on OVCAR-5 ovarian and in the test on 786-0 renal was greater than 100 µM each time. In addition, the TGI in the test with OVCAR-3 ovarian, with LOX IMVI melanoma, with OVCAR-4 ovarian, in the test with RPMI-8226 leukemia and with KM20L2 colon was greater than 100 µM throughout.

Turning to `O=C([CH-]C(=O)c1ccccc1)c1ccccc1.O=C([CH-]C(=O)c1ccccc1)c1ccccc1.[O]=[U+2]=[O]`, the GI50 in the test with SK-MEL-28 melanoma is 3.49 µM; in the test on M14 melanoma, 2.35 µM; in the test with A549 NSCLC it was 3.17 µM; in the test with OVCAR-3 ovarian it was 1.81 µM; in the test with LOX IMVI melanoma it was 2.7 µM; with OVCAR-4 ovarian it was 2.42 µM. Besides, the figures for the GI50 in the test on RPMI-8226 leukemia and with KM20L2 colon were 1.99 µM and 2.65 µM, respectively. The TGI in the test with SK-MEL-28 melanoma was 19.9 µM; with M14 melanoma it was 6.42 µM; in the test on A549 NSCLC, 18.7 µM; in the test with OVCAR-3 ovarian it was 4.79 µM; in the test with LOX IMVI melanoma, greater than 100 µM; with OVCAR-4 ovarian, 14 µM. For the same compound, the TGI in the test with RPMI-8226 leukemia turned out to be 6.4 µM; in the test on KM20L2 colon, 12.4 µM.

As for `Cc1c2ccncc2c(C)c2c1[nH]c1ccccc12`, the TGI is 3.29 µM with XF 498 CNS; 3 µM in the test with SK-MEL-28 melanoma; 2.33 µM in the test on M14 melanoma; 2.96 µM in the test with A549 NSCLC; 4.23 µM in the test with OVCAR-5 ovarian; 2.65 µM with OVCAR-3 ovarian. The TGI was found to be 4.2 µM in the test on LOX IMVI melanoma, 2.66 µM in the test with OVCAR-4 ovarian, 3.11 µM in the test with RPMI-8226 leukemia and 5.89 µM with KM20L2 colon. The GI50 with M14 melanoma is 0.979 µM.

With `C[C@]12CC[C@H](O)C=C1CC[C@@H]1[C@@H]2CC[C@]2(C)C(c3ccc(=O)oc3)CC[C@]12O` (stereo partly drawn), the TGI was 0.0505 µM in the test with XF 498 CNS; 0.222 µM in the test with SK-MEL-28 melanoma; 0.0172 µM in the test on A549 NSCLC; 0.321 µM in the test with OVCAR-5 ovarian; 0.018 µM in the test with OVCAR-3 ovarian; 0.242 µM in the test on LOX IMVI melanoma. Further, the TGI came out at 0.0356 µM in the test with OVCAR-4 ovarian, 0.0733 µM in the test on RPMI-8226 leukemia and 0.148 µM in the test with KM20L2 colon.

Consider `CCCOC(=O)NC(C)C(=O)NC(CCC(=O)NC(CCCC(N)C(=O)O)C(=O)NC(C)C(=O)O)C(=O)O` (stereo not drawn), for which the TGI in the test on SK-MEL-28 melanoma was 44.9 µM; in the test with M14 melanoma, 40.6 µM; in the test on A549 NSCLC, greater than 100 µM; with OVCAR-5 ovarian, greater than 100 µM; in the test with 786-0 renal, greater than 100 µM; with OVCAR-3 ovarian, greater than 100 µM. The TGI is 30.1 µM with LOX IMVI melanoma, 70.6 µM in the test with OVCAR-4 ovarian and 32.2 µM with RPMI-8226 leukemia.

Consider `O=C1c2cccc(NCCNCCO)c2C(=O)c2cccc(NCCNCCO)c21`, for which the TGI in the test on XF 498 CNS is 1.88 µM; in the test on SK-MEL-28 melanoma, 5.88 µM; with M14 melanoma, 3.57 µM; with A549 NSCLC it was 7.78 µM; in the test on OVCAR-5 ovarian, 5.67 µM; in the test on 786-0 renal, 3.95 µM. In addition, the TGI is 4.74 µM in the test on OVCAR-3 ovarian; 1.65 µM with LOX IMVI melanoma; 2.49 µM in the test on OVCAR-4 ovarian; greater than 32.3 µM in the test on RPMI-8226 leukemia; 5.3 µM with KM20L2 colon.

Consider `NC(=O)c1ncn2c1NC(=O)CC2`, for which the TGI with XF 498 CNS, with SK-MEL-28 melanoma, in the test on A549 NSCLC, with OVCAR-5 ovarian, in the test with OVCAR-3 ovarian and in the test on LOX IMVI melanoma was greater than 100 µM in each case. Further, the TGI in the test with OVCAR-4 ovarian, in the test on RPMI-8226 leukemia and in the test with KM20L2 colon was greater than 100 µM each time.

Regarding `Cc1cc(/N=C/c2ccc(C#N)cc2)n(-c2ccccc2)n1`, the TGI in the test on SK-MEL-28 melanoma, in the test on M14 melanoma, in the test on A549 NSCLC, in the test on OVCAR-5 ovarian, with 786-0 renal and with OVCAR-3 ovarian was greater than 100 µM in each case. Moreover, the TGI in the test on LOX IMVI melanoma, in the test with OVCAR-4 ovarian and in the test with RPMI-8226 leukemia was greater than 100 µM each time.

For the compound `COC(=O)C1(Cc2ccc3c(c2)CCC3)Cc2ccccc2C1=O` (stereo not drawn), the TGI in the test with SK-MEL-28 melanoma is 40.3 µM; in the test with M14 melanoma, 32.4 µM; with A549 NSCLC, greater than 100 µM; in the test on OVCAR-5 ovarian it was greater than 100 µM; with 786-0 renal, greater than 100 µM; in the test on OVCAR-3 ovarian, greater than 100 µM. For the same compound, the TGI was 28.5 µM in the test with LOX IMVI melanoma, greater than 100 µM with OVCAR-4 ovarian and 58.7 µM with RPMI-8226 leukemia.

Consider `COc1c(O)c(O)cc2c1-c1ccc(OC)c(=O)cc1C(NC(C)=O)CC2` (stereo not drawn), for which the TGI in the test on XF 498 CNS is 54.2 µM; in the test on SK-MEL-28 melanoma it was greater than 100 µM; in the test on M14 melanoma it was greater than 79 µM; with A549 NSCLC it was greater than 100 µM; in the test on OVCAR-5 ovarian, 80.6 µM; in the test on 786-0 renal, 74.8 µM. The TGI in the test on OVCAR-3 ovarian amounted to 5.77 µM; with LOX IMVI melanoma, 20.6 µM; in the test on OVCAR-4 ovarian it was 77.2 µM; with RPMI-8226 leukemia, 54.9 µM; in the test with KM20L2 colon, 17.5 µM.

`COc1ccc(N=Nc2c3c(c(O)c4ccccc24)CCC(C)(C)O3)cc1`: the TGI in the test with SK-MEL-28 melanoma came out at 43.1 µM; in the test with M14 melanoma it was 39.3 µM; with A549 NSCLC, 39 µM; in the test with OVCAR-5 ovarian it was 43.3 µM; in the test with 786-0 renal, 73.8 µM; with OVCAR-3 ovarian, 33.2 µM. Further, the TGI was determined as 29.9 µM in the test on LOX IMVI melanoma, 50.4 µM in the test on OVCAR-4 ovarian and 98.1 µM in the test on RPMI-8226 leukemia.
